Source: PMC10929621, “An Engineered Biarylitide Cross-Linking P450 from RiPP Biosynthesis Generates Alternative Cyclic Peptides” (Organic Letters, 2024)

System: Blt-M1 (P450Blt A231V-H234L)
Experiment: Deuterium loss on cyclization by Blt-M1
Format: biochemical, Micromonospora sp. MW-13
Settings: deuterium at C2 of His-3, HRMS
Experimental: Finally, we sought to clarify the nature of the cross-link within 5 formed by Blt-M1 as no equivalent cross-linked tripeptide natural product has been identified. Scaled enzymatic cyclization of Nle-2 (N-terminal Met residue was replaced with norleucine (Nle) to avoid sulfoxidation due to the release of reactive oxygen intermediates during catalysis) and purification of Nle-5 were then performed. […] We turned to the use of peptide deuteration to resolve this cross-link, which based on WT biarylitide reactivity could be either C–C or C–N. This required synthesis and turnover of a deuterated version of Nle-2 with deuterium at C2 of the His-3 residue (Nle-2^3d).[17] […]
The UV-visible spectra of the P450 enzymes were obtained using a Jasco V-750 spectrophotometer as has been previously reported.1 The spectra were measured until it reached a stable peak. CO difference spectra were obtained using a Jasco V-750 spectrophotometer at 30 °C as has been previously described.1 The UV-vis spectra were measured between 390–600 nm every 5 mins until the spectra was stable.1, 4 Substrate interaction with the P450s was measured using UV-visible absorbance spectroscopy carried out on a Jasco V-750 spectrophotometer according to previously reported protocol.1 Amplitudes of the different spectra were extrapolated (ΔA = Amax - Amin) and plotted against the substrate concentration. […]

NleRHLY (sidechain bridge or staple) [Nle-5, cross-linked peptide from enzymatic cyclization of Nle-2 by Blt-M1]
loss of deuterium upon cyclization: loss of deuterium
